How the values were obtained:
giant foxtail = assay: Test B pre/postemergence giant foxtail; type: in vivo, Setaria faberii
In short: (§1)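 Response is a visual 0-to-10 score relative to untreated plants, where 0 means no effect and 10 means complete control, taken twelve to sixteen days after application. Treatments went onto soil at planting and onto foliage of 1- to 4-leaf plants, using a surfactant-containing non-phytotoxic solvent.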

corn = assay: Test B pre/postemergence corn; type: in vivo, Zea mays
In short: as §1

cocklebur = assay: Test B pre/postemergence cocklebur; type: in vivo, Xanthium strumarium
In short: as §1

purple nutsedge = assay: Test B pre/postemergence purple nutsedge; type: in vivo, Cyperus rotundus
In short: as §1

sugar beet = assay: Test B pre/postemergence sugar beet; type: in vivo, Beta vulgaris
In short: as §1

soybean = assay: Test B pre/postemergence soybean; type: in vivo, Glycine max
In short: as §1

smallflower flatsedge = assay: Test B flood test smallflower flatsedge; type: in vivo, Cyperus difformis
In short: (§2)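 Flood test on plants grown to the 2-leaf stage; treated plants kept in greenhouse twelve to sixteen days, then visually rated against controls on a 0 (no effect) to 10 (complete control) scale.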

morningglory = assay: Test B pre/postemergence morningglory; type: in vivo, Ipomoea hederacea
In short: as §1

blackgrass = assay: Test B pre/postemergence blackgrass; type: in vivo, Alopecurus myosuroides
In short: as §1

bamyardgrass = assay: Test B flood test barnyardgrass; type: in vivo, Echinochloa crus-galli
In short: as §2

velvetleaf = assay: Test B pre/postemergence velvetleaf; type: in vivo, Abutilon theophrasti
In short: as §1

pigweed = assay: Test B pre/postemergence pigweed; type: in vivo, Amaranthus retroflexus
In short: as §1

bedstraw = assay: Test B pre/postemergence bedstraw; type: in vivo, Galium aparine; settings: Preemergence
In short: as §1

surinam grass = assay: Test B pre/postemergence surinam grass; type: in vivo, Brachiaria decumbens
In short: as §1

duck salad = assay: Test B flood test duck salad; type: in vivo, Heteranthera limosa
In short: as §2

rape = assay: Test B pre/postemergence rape; type: in vivo, Brassica napus
In short: as §1

[1] = Postemergence, Rate 62 g/ha, scale 0 to 10, 0 is no effect, 10 is complete control
[2] = Postemergence, Rate 125 g/ha, scale of 0 to 10 where 0 is no effect and 10 is complete control
[3] = Postemergence, Rate 250 g/ha, scale of 0 to 10, 0 is no effect, 10 is complete control
[4] = Postemergence, Rate 500 g/ha, scale of 0 to 10 where 0 is no effect and 10 is complete control
[5] = Preemergence, Rate 62 g/ha, scale 0 to 10 (0 no effect, 10 complete control)
[6] = Preemergence, Rate 125 g/ha, scale of 0 to 10 where 0 is no effect and 10 is complete control
[7] = Preemergence, Rate 250 g/ha, scale 0 to 10 (0 no effect, 10 complete control)
[8] = Preemergence, Rate 500 g/ha, scale of 0 to 10 where 0 is no effect and 10 is complete control
[9] = Rate 62 g/ha, flood test species, Pre-emergence, visual evaluation after twelve to sixteen days
[10] = Rate 125 g/ha, under heading Pre-emergence, flood test species, visual evaluation after twelve to sixteen days
[11] = Rate 250 g/ha, Pre-emergence (flood test species), scale 0 to 10, 0 is no effect, 10 is complete control
[12] = Rate 500 g/ha, Pre-emergence section of Table B, 0 to 10 scale (0 no effect, 10 complete control)

CC(C)N(C(=O)n1oc(=O)n(CSC#N)c1=O)c1ccc(F)cc1 [Compound 618]
Plant response rating, Giant foxtail (giant foxtail; [1]): 0
Plant response rating, Giant foxtail (giant foxtail; [2]): 0
Giant foxtail plant response rating (giant foxtail; [3]): 0
Plant response rating, Giant foxtail (giant foxtail; [4]): 0
Giant foxtail plant response rating (giant foxtail; [5]): 2
Giant foxtail plant response rating (giant foxtail; [6]): 2
Plant response rating, Giant foxtail (giant foxtail; [7]): 2
Plant response rating, Giant foxtail (giant foxtail; [8]): 0
Plant response rating, Corn (corn; [1]): 0
Plant response rating, Corn (corn; [2]): 0
Corn plant response rating (corn; [3]): 0
Plant response rating, Corn (corn; [4]): 0
Corn plant response rating (corn; [5]): 0
Corn plant response rating (corn; [6]): 0
Plant response rating, Corn (corn; [7]): 0
Plant response rating, Corn (corn; [8]): 0
Plant response rating, Cocklebur (cocklebur; [1]): 0
Cocklebur plant response rating (cocklebur; [3]): 0
Plant response rating, Cocklebur (cocklebur; [4]): 0
Cocklebur plant response rating (cocklebur; [5]): 0
Cocklebur plant response rating (cocklebur; [6]): 0
Plant response rating, Cocklebur (cocklebur; [8]): 0
Plant response rating, Nutsedge (purple nutsedge; [1]): 0
Plant response rating, Nutsedge (purple nutsedge; [2]): 0
Nutsedge plant response rating (purple nutsedge; [3]): 0
Nutsedge plant response rating (purple nutsedge; [6]): 0
Plant response rating, Nutsedge (purple nutsedge; [8]): 0
Plant response rating, Sugarbeets (sugar beet; [1]): 0
Plant response rating, Sugarbeets (sugar beet; [2]): 0
Sugarbeets plant response rating (sugar beet; [3]): 0
Sugarbeets plant response rating (sugar beet; [5]): 0
Sugarbeets plant response rating (sugar beet; [6]): 0
Plant response rating, Sugarbeets (sugar beet; [7]): 0
Plant response rating, Sugarbeets (sugar beet; [8]): 0
Plant response rating, Soybean (soybean; [1]): 0
Plant response rating, Soybean (soybean; [2]): 0
Soybean plant response rating (soybean; [3]): 6
Soybean plant response rating (soybean; [5]): 0
Soybean plant response rating (soybean; [6]): 0
Plant response rating, Soybean (soybean; [7]): 0
Plant response rating, Soybean (soybean; [8]): 0
Plant response rating, S. Flatsedge (0 to 10 scale, 0 is no effect, 10 is complete control) (smallflower flatsedge; [9]): 0
S. Flatsedge plant response rating (0 to 10 scale, 0 is no effect, 10 is complete control) (smallflower flatsedge; [10]): 0
S. Flatsedge plant response rating (smallflower flatsedge; [11]): 0
S. Flatsedge plant response rating (smallflower flatsedge; [12]): 0
Plant response rating, Morningglory (morningglory; [1]): 0
Plant response rating, Morningglory (morningglory; [2]): 0
Morningglory plant response rating (morningglory; [3]): 0
Plant response rating, Morningglory (morningglory; [4]): 0
Morningglory plant response rating (morningglory; [5]): 0
Morningglory plant response rating (morningglory; [6]): 0
Plant response rating, Morningglory (morningglory; [7]): 0
Plant response rating, Morningglory (morningglory; [8]): 0
Plant response rating, Blackgrass (blackgrass; [1]): 0
Plant response rating, Blackgrass (blackgrass; [2]): 0
Blackgrass plant response rating (blackgrass; [3]): 0
Plant response rating, Blackgrass (blackgrass; [4]): 0
Blackgrass plant response rating (blackgrass; [5]): 0
Blackgrass plant response rating (blackgrass; [6]): 0
Plant response rating, Blackgrass (blackgrass; [7]): 0
Blackgrass plant response rating (blackgrass; [8]): 0
Plant response rating, Barnyardgrass (0 to 10 scale, 0 is no effect, 10 is complete control) (bamyardgrass; [9]): 0
Barnyardgrass plant response rating (0 to 10 scale, 0 is no effect, 10 is complete control) (bamyardgrass; [10]): 0
Barnyardgrass plant response rating (bamyardgrass; [11]): 0
Barnyardgrass plant response rating (bamyardgrass; [12]): 0
Plant response rating, Velvetleaf (velvetleaf; [1]): 0
Plant response rating, Velvetleaf (velvetleaf; [2]): 0
Velvetleaf plant response rating (velvetleaf; [3]): 0
Velvetleaf plant response rating (velvetleaf; [5]): 0
Velvetleaf plant response rating (velvetleaf; [6]): 0
Plant response rating, Velvetleaf (velvetleaf; [7]): 0
Plant response rating, Velvetleaf (velvetleaf; [8]): 0
Plant response rating, Redroot pigweed (pigweed; [1]): 0
Plant response rating, Redroot pigweed (pigweed; [2]): 0
Redroot pigweed plant response rating (pigweed; [3]): 0
Redroot pigweed plant response rating (pigweed; [5]): 0
Redroot pigweed plant response rating (pigweed; [6]): 0
Plant response rating, Redroot pigweed (pigweed; [7]): 0
Plant response rating, Redroot pigweed (pigweed; [8]): 0
Bedstraw plant response rating (bedstraw; Rate 62 g/ha, scale 0 to 10 (0 no effect, 10 complete control)): 0
Bedstraw plant response rating (bedstraw; Rate 125 g/ha, scale of 0 to 10 where 0 is no effect and 10 is complete control): 0
Plant response rating, Bedstraw (bedstraw; Rate 250 g/ha, scale 0 to 10 (0 no effect, 10 complete control)): 0
Bedstraw plant response rating (bedstraw; Rate 500 g/ha, scale of 0 to 10 where 0 is no effect and 10 is complete control): 0
Plant response rating, B. signalgrass (surinam grass; [1]): 0
Plant response rating, B. signalgrass (surinam grass; [2]): 0
B. signalgrass plant response rating (surinam grass; [3]): 0
Plant response rating, B. signalgrass (surinam grass; [4]): 0
B. signalgrass plant response rating (surinam grass; [5]): 0
B. signalgrass plant response rating (surinam grass; [6]): 0
Plant response rating, B. signalgrass (surinam grass; [7]): 0
B. signalgrass plant response rating (surinam grass; [8]): 0
Plant response rating, Ducksalad (0 to 10 scale, 0 is no effect, 10 is complete control) (duck salad; [9]): 0
Ducksalad plant response rating (0 to 10 scale, 0 is no effect, 10 is complete control) (duck salad; [10]): 0
Ducksalad plant response rating (duck salad; [11]): 0
Ducksalad plant response rating (duck salad; [12]): 0
Plant response rating, Rape (rape; [1]): 0
Plant response rating, Rape (rape; [2]): 0
Rape plant response rating (rape; [3]): 0
Plant response rating, Rape (rape; [4]): 0
Rape plant response rating (rape; [5]): 0
Rape plant response rating (rape; [6]): 0
Plant response rating, Rape (rape; [7]): 0
Plant response rating, Rape (rape; [8]): 0

From patent US6737383B1, “Herbicidal oxadiazolidines” (priority 1999, dated 2004)
